Assays:
[1] = Inhibition of C-terminal His-tagged Caldalkalibacillus thermarum TA2.A1 NDH2 R382C mutant preincubated for 1 hr followed by NADH addition measured after 8 mins
[2] = test system: Caldalkalibacillus thermarum TA2.A1; assay: Selectivity ratio of IC50 for wild type Caldalkalibacillus thermarum TA2.A1 NDH2 to IC50 for C-terminal His-tagged Caldalkalibacillus thermarum TA2.A1 NDH2 R347C mutant
[3] = test system: Caldalkalibacillus thermarum TA2.A1; assay: Selectivity ratio of IC50 for wild type Caldalkalibacillus thermarum TA2.A1 NDH2 to IC50 for C-terminal His-tagged Caldalkalibacillus thermarum TA2.A1 NDH2 R382C mutant
[4] = Inhibition of wild type Caldalkalibacillus thermarum TA2.A1 NDH2 preincubated for 1 hr followed by NADH addition measured after 8 mins
[5] = Inhibition of C-terminal His-tagged Caldalkalibacillus thermarum TA2.A1 NDH2 R347C mutant preincubated for 1 hr followed by NADH addition measured after 8 mins

IC50 [1] | Ratio IC50 [2] | Ratio IC50 [3] | IC50 [4] | IC50 [5] | Structure (SMILES)
6.3 µM | 0.9 | 0.9 | 5.6 µM | 5.9 µM | CN(C)CCSSCCNC(=O)c1ccc(C#Cc2ccccc2)o1
32.6 µM | 0.9 | 0.9 | 61.9 µM | 110 µM | CN(C)CCSSCCNC(=O)c1cccc2cc[nH]c12
3.2 µM | 9.3 | 9.3 | 42.2 µM | 5.9 µM | CN(C)CCSSCCNC(=O)CCC(=O)c1ccccn1
33.5 µM | 0.8 | 0.8 | 38.1 µM | 60.8 µM | CN(C)CCSSCCNC(=O)c1c(N)cccc1Cl
13 µM | 0.6 | 0.6 | 11.3 µM | 21.9 µM | CN(C)CCSSCCNC(=O)[C@H]1CCCN(C(=O)c2cc3cccc(O)c3cc2O)C1
11.5 µM | 2.8 | 2.8 | 36 µM | 14.5 µM | CN(C)CCSSCCCNC(=O)c1cccc(N(C)C)c1

Continued, compound first:

Structure (SMILES) | IC50 [1] | Ratio IC50 [2] | Ratio IC50 [3] | IC50 [4] | IC50 [5]
CN(C)CCSSCCn1cc(-c2ccc(N(C)C)cc2)nn1 | 24 µM | 3.6 | 3.6 | 147 µM | 56.8 µM
CN(C)CCSSCCNC(=O)[C@H]1CCCN(C(=O)c2ccc(-n3cccc3)cc2)C1 | 26.9 µM | 3 | 3 | 80.3 µM | 26.5 µM
CN(C)CCSSCCNC(=O)C(CC(=O)c1ccccc1)c1cc2ccccc2n1C (stereo unspecified) | 7 µM | 1.3 | 1.3 | 12.8 µM | 12.9 µM
CN1CCN(CCCN2c3ccccc3Sc3ccc(C(F)(F)F)cc32)CC1 [TRIFLUOPERAZINE] |  |  |  | 50 µM | 
NCCSSCCNC(=O)C1CCN(C(=O)c2ccc3ncsc3c2)CC1 | 18.6 µM | 3.7 | 3.7 | 52 µM | 9.9 µM

Reference: ChEMBL document CHEMBL4118240, “'Tethering' fragment-based drug discovery to identify inhibitors of the essential respiratory membrane protein type II NADH dehydrogenase” (Bioorg Med Chem Lett, 2018)
